Data: patent US12258327B2, “5-membered heteroaryl-containing aminopyridine compounds as EGFR inhibitors” (YUHAN CORPORATION, priority 2021, dated 2025)
Where two headings read alike, the source gives them in different places.

Tests used:
EGFR del19/T790M/C797S = EGFR del19/T790M/C797S (Homo sapiens, UniProt P00533, C797S/DEL746-750/T790M); assay: Biochemical EGFR kinase assay (Lance Ultra TR-FRET), triple mutant del19/T790M/C797S
How it was run: (§1)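 Kinase activity is measured by TR-FRET phosphopeptide detection. Compounds span 0.003 μM to 10 μM; the 1 h reaction at room temperature is quenched with EDTA, then labelled antibody (2 nM) is incubated 60 min before reading.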

EGFR L858R/T790M/C797S = EGFR L858R/T790M/C797S (Homo sapiens, UniProt P00533, C797S/L858R/T790M); assay: Biochemical EGFR kinase assay (Lance Ultra TR-FRET), triple mutant L858R/T790M/C797S
Sequence of EGFR L858R/T790M/C797S (P00533 25-1210 T790M/C797S/L858R): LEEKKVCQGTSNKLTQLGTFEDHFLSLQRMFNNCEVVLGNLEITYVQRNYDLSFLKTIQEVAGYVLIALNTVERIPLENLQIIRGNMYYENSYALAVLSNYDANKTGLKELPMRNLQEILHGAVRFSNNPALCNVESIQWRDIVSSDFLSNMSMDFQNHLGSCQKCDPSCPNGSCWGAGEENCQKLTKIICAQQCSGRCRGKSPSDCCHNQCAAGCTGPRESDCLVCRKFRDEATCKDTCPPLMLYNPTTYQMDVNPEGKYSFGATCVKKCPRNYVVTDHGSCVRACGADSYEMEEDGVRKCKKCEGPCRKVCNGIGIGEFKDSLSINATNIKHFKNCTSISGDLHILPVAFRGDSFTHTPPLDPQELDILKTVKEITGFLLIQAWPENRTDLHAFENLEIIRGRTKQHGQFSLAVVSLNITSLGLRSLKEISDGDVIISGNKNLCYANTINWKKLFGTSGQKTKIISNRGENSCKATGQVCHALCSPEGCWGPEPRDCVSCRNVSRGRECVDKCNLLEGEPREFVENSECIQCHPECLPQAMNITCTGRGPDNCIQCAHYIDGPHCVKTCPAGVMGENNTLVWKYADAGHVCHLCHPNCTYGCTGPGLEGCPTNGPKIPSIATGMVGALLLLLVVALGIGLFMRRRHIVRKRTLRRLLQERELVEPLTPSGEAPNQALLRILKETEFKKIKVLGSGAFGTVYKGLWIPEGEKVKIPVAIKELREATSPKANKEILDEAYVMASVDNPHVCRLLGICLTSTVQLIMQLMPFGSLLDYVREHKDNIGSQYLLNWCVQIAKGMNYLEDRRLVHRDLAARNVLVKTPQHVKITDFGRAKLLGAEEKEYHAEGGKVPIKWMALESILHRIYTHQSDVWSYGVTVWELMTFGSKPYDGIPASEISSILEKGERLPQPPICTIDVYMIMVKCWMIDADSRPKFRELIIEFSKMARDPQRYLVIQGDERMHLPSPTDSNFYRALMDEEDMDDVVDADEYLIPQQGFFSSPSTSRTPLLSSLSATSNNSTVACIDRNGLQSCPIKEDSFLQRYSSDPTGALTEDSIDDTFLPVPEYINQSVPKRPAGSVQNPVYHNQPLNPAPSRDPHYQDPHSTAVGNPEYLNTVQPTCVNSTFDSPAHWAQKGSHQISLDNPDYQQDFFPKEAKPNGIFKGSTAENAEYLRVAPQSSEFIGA
How it was run: as §1

EGFR del19/C797S = EGFR del19/C797S (Homo sapiens, UniProt P00533, C797S/DEL746-750); assay: Biochemical EGFR kinase assay (Lance Ultra TR-FRET), double mutant del19/C797S
Sequence of EGFR del19/C797S (P00533 with tags, fused parts or gaps DEL746-750/C797S): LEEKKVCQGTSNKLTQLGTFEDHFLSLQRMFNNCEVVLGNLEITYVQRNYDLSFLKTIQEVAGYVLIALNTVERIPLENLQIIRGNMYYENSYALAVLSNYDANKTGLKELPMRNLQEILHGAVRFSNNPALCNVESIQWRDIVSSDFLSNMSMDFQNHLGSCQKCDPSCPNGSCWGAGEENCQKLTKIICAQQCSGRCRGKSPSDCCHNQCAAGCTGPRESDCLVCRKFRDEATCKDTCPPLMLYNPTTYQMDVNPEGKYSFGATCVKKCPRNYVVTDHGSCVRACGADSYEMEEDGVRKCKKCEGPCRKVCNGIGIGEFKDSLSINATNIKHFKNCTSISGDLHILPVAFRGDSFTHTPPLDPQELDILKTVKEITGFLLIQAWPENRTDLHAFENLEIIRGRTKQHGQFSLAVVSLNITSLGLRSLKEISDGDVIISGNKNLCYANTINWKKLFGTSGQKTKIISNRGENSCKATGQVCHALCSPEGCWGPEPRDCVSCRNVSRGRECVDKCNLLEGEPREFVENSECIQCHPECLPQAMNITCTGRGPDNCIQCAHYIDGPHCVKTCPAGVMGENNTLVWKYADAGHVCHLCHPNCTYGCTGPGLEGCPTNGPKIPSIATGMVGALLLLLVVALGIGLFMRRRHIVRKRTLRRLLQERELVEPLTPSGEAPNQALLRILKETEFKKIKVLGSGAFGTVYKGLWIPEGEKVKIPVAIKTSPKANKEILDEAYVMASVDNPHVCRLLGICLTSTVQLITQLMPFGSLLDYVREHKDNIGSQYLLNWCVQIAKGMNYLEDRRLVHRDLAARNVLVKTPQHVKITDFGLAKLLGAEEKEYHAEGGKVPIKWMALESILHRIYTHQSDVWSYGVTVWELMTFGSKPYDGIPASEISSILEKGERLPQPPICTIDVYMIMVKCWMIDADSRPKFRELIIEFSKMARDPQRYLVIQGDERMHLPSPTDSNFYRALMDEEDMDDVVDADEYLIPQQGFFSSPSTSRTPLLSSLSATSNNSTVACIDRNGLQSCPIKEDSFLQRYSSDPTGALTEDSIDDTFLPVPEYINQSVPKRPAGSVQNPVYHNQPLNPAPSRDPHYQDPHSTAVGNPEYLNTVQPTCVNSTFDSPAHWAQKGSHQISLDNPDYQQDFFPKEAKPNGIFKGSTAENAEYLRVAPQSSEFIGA
How it was run: as §1

EGFR L858R/C797S = EGFR L858R/C797S (Homo sapiens, UniProt P00533, C797S/L858R); assay: Biochemical EGFR kinase assay (Lance Ultra TR-FRET), double mutant L858R/C797S
Sequence of EGFR L858R/C797S (P00533 25-1210 C797S/L858R): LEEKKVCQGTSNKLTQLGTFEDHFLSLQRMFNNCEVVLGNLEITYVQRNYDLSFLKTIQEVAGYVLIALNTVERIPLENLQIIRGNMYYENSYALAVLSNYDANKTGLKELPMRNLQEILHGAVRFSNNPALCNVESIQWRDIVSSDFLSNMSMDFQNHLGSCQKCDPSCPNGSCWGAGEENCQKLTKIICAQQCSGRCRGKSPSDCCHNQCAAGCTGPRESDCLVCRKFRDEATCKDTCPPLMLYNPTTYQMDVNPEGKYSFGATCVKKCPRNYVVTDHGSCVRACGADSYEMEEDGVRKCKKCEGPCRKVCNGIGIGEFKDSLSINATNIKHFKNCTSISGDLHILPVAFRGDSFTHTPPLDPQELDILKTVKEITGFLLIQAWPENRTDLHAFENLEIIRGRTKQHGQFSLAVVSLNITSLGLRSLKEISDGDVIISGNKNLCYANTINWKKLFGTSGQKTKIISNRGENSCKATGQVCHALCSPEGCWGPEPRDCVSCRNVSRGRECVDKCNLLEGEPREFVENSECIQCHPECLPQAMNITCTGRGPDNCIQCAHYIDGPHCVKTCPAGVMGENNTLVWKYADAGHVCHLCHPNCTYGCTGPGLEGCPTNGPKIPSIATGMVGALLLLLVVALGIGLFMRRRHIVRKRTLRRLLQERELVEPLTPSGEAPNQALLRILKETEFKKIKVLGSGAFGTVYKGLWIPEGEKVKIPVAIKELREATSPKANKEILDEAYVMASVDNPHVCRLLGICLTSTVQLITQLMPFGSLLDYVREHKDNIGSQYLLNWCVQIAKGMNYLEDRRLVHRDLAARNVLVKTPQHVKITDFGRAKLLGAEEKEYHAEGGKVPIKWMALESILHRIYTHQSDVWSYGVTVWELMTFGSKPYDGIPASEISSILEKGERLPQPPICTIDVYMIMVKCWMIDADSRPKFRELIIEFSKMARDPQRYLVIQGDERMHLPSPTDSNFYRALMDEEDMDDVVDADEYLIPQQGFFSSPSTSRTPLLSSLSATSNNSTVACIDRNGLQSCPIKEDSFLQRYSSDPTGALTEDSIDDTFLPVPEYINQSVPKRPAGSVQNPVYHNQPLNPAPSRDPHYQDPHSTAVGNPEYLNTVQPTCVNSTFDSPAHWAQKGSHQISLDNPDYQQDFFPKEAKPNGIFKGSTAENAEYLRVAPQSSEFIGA
How it was run: as §1

EGFR wildtype (WT) = EGFR wildtype (WT) (Homo sapiens, UniProt P00533); assay: Biochemical EGFR kinase assay (Lance Ultra TR-FRET), wildtype
How it was run: as §1

[1] = IC50 del19/T790M/C797S (nM) 100 μM ATP, 100 μM ATP
[2] = Km ATP, read-out: IC50 del19/T790M/C797S (nM) Km ATP
[3] = IC50 L858R/T790M/C797S (nM) 100 μM ATP, 100 μM ATP
[4] = Km ATP, read-out: IC50 L858R/T790M/C797S (nM) Km ATP
[5] = IC50 del19/C797S (nM) 100 μM ATP, 100 μM ATP
[6] = Km ATP, read-out: IC50 del19/C797S (nM) Km ATP
[7] = IC50 L858R/C797S (nM) 100 μM ATP, 100 μM ATP
[8] = Km ATP, read-out: IC50 L858R/C797S (nM) Km ATP
[9] = IC50 WT (nM) 100 μM ATP, 100 μM ATP
[10] = Km ATP, read-out: IC50 WT (nM) Km ATP

Sequence of EGFR del19/T790M/C797S (P00533 with tags, fused parts or gaps DEL746-750/T790M/C797S): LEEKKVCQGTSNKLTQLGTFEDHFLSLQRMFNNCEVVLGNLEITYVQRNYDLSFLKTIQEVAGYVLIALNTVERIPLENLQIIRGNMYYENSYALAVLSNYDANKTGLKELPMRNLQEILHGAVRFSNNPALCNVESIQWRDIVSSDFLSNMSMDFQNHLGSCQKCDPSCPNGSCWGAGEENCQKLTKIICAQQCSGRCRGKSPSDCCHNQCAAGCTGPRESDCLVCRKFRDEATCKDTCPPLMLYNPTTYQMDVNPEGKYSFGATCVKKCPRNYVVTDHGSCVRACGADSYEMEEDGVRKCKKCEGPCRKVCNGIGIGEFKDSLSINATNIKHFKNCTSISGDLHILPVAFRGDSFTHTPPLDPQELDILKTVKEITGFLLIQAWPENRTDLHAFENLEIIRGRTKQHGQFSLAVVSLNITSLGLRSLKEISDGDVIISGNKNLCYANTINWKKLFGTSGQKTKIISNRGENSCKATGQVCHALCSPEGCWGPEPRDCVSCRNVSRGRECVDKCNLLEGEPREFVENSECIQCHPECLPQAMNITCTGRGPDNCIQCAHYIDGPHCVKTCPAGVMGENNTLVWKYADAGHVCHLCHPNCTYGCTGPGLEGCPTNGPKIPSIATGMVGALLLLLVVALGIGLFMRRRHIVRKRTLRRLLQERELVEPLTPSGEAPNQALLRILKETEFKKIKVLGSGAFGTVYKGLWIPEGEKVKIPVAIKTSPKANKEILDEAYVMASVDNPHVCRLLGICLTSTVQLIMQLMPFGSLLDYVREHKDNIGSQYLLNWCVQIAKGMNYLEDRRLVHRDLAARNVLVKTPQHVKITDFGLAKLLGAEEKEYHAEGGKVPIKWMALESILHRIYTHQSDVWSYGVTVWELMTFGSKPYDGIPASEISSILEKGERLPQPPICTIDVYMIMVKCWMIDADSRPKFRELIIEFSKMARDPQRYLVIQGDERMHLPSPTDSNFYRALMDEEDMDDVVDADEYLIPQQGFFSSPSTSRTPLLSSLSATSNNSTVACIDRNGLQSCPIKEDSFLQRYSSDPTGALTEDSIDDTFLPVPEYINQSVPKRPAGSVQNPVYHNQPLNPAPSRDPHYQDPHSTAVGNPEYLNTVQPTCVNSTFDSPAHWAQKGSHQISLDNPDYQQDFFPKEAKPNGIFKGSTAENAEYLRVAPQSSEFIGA

| Compound | IC50 (EGFR del19/T790M/C797S; [1]) | IC50 (EGFR del19/T790M/C797S; [2]) | IC50 (EGFR L858R/T790M/C797S; [3]) | IC50 (EGFR L858R/T790M/C797S; [4]) | IC50 (EGFR del19/C797S; [5]) | IC50 (EGFR del19/C797S; [6]) | IC50 (EGFR L858R/C797S; [7]) | IC50 (EGFR L858R/C797S; [8]) | IC50 (EGFR wildtype (WT); [9]) | IC50 (EGFR wildtype (WT); [10]) | IC50 (EGFR del19/T790M/C797S; Km ATP, read-out: IC50 del19/T790M/C797S, Km ATP) | IC50 (EGFR L858R/T790M/C797S; Km ATP, read-out: IC50 L858R/T790M/C797S, Km ATP) | IC50 (EGFR del19/C797S; Km ATP, read-out: IC50 del19/C797S, Km ATP) | IC50 (EGFR L858R/C797S; Km ATP, read-out: IC50 L858R/C797S, Km ATP) | IC50 (EGFR wildtype (WT); Km ATP, read-out: IC50 WT, Km ATP) | IC50 (EGFR del19/T790M/C797S; read-out: IC50 del19/T790M/C797S (nM) 100 μM ATP, 100 μM ATP) | IC50 (EGFR L858R/T790M/C797S; read-out: IC50 L858R/T790M/C797S (nM) 100 μM ATP, 100 μM ATP) | IC50 (EGFR del19/C797S; read-out: IC50 del19/C797S (nM) 100 μM ATP, 100 μM ATP) | IC50 (EGFR L858R/C797S; read-out: IC50 L858R/C797S (nM) 100 μM ATP, 100 μM ATP) | IC50 (EGFR wildtype (WT); read-out: IC50 WT (nM) 100 μM ATP, 100 μM ATP) |
| --- | --- | --- | --- | --- | --- | --- | --- | --- | --- | --- | --- | --- | --- | --- | --- | --- | --- | --- | --- | --- |
| Cc1nn(S(=O)(=O)N(C)C)cc1-c1nccc(Nc2cc(N[C@H]3CC[C@@](C)(O)CC3)c(-c3ccn(C(F)F)n3)cn2)n1 [Example 315, 4-(4-((5-(1-(Difluoromethyl)-1H-pyrazol-3-yl)-4-(((1s,4s)-4-hydroxy-4-methylcyclohexyl)amino)pyridin-2-yl)amino)pyrimidin-2-yl)-N,N,3-trimethyl-1H-pyrazole-1-sulfonamide] | 1.9 nM | 0.6 nM | 1.1 nM | 0.5 nM | 11 nM | 6.3 nM | 37.4 nM | 5.4 nM | > 10000 nM | 14.2 nM |  |  |  |  |  |  |  |  |  |  |
| CN(C)CCCn1ccc(-c2cnc(Nc3ccnc(-c4cnn(S(=O)(=O)C5CC5)c4)n3)cc2NCC2(CO)COC2)n1 [Example 279, (3-(((2-((2-(1-(Cyclopropylsulfonyl)-1H-pyrazol-4-yl)pyrimidin-4-yl)amino)-5-(1-(3-(dimethylamino)propyl)-1H-pyrazol-3-yl)pyridin-4-yl)amino)methyl)oxetan-3-yl)methanol] | 0.3 nM | 0.5 nM | 0.4 nM | 0.3 nM | 1 nM | 0.6 nM | 14.2 nM | 0.6 nM | 4690 nM | 4.9 nM |  |  |  |  |  |  |  |  |  |  |
| O=S(=O)(C1CC1)n1cc(-c2nccc(Nc3cc(N[C@H]4CC[C@@H](CO)CC4)c(-c4ccn(C5CC5)n4)cn3)n2)cn1 [Example 297, ((1s,4s)-4-((5-(1-Cyclopropyl-1H-pyrazol-3-yl)-2-((2-(1-(cyclopropylsulfonyl)-1H-pyrazol-4-yl)pyrimidin-4-yl)amino)pyridin-4-yl)amino)cyclohexyl)methanol] | 0.2 nM | 0.1 nM | 0.5 nM | 0.1 nM | 0.7 nM | 0.5 nM | 3.9 nM | 0.3 nM | 582 nM | 1.6 nM |  |  |  |  |  |  |  |  |  |  |
| Cc1cnn(-c2cnc(Nc3ccnc(-c4cnn(S(=O)(=O)C5CC5)c4)n3)cc2N[C@H]2CC[C@@](C)(O)CC2)c1 [Example 184, (1s,4s)-4-((2-((2-(1-(Cyclopropylsulfonyl)-1H-pyrazol-4-yl)pyrimidin-4-yl)amino)-5-(4-methyl-1H-pyrazol-1-yl)pyridin-4-yl)amino)-1-methylcyclohexan-1-ol] |  | 0.1 nM |  | 0.05 nM |  | 4.8 nM |  | 2 nM |  | 32 nM |  |  |  |  |  |  |  |  |  |  |
| O=S(=O)(C1CC1)n1cc(-c2nccc(Nc3cc(N[C@H]4CC[C@@H](F)CC4)c(-c4ccn(C(F)(F)F)n4)cn3)n2)cn1 [Example 286, N^2-(2-(1-(Cyclopropylsulfonyl)-1H-pyrazol-4-yl)pyrimidin-4-yl)-N^4-((1s,4s)-4-fluorocyclohexyl)-5-(1-(trifluoromethyl)-1H-pyrazol-3-yl)pyridine-2,4-diamine] |  | 20.2 nM |  | 4.8 nM |  | 90.9 nM |  | 188 nM |  | 1010 nM |  |  |  |  |  |  |  |  |  |  |
| CN(C)CC[C@H]1CC[C@@H](Nc2cc(Nc3ccnc(-c4cnn(S(=O)(=O)C5CC5)c4)n3)ncc2-c2ccn(C)n2)CC1 [Example 240, N^2-(2-(1-(Cyclopropylsulfonyl)-1H-pyrazol-4-yl)pyrimidin-4-yl)-N^4-((1s,4s)-4-(2-(dimethylamino)ethyl)cyclohexyl)-5-(1-methyl-1H-pyrazol-3-yl)pyridine-2,4-diamine] |  | 0.4 nM |  | 0.1 nM |  | 0.2 nM |  | 0.04 nM |  | 0.2 nM |  |  |  |  |  |  |  |  |  |  |
| Cn1nc(-c2cnc(Nc3nc(-c4cnn(S(=O)(=O)C5CC5)c4)ncc3F)cc2N[C@H]2CC[C@@](C)(O)CC2)cc1C(F)(F)F [Example 328, (1s,4s)-4-((2-((2-(1-(Cyclopropylsulfonyl)-1H-pyrazol-4-yl)-5-fluoropyrimidin-4-yl)amino)-5-(1-methyl-5-(trifluoromethyl)-1H-pyrazol-3-yl)pyridin-4-yl)amino)-1-methylcyclohexan-1-ol] | 8 nM | 4.8 nM | 6.5 nM | 2 nM | 11.5 nM | 9.3 nM | 378 nM | 19.5 nM | > 10000 nM | 110 nM |  |  |  |  |  |  |  |  |  |  |
| C[C@]1(F)CC[C@@H](Nc2cc(Nc3ccnc(-c4cnn(S(=O)(=O)C5CC5)c4)n3)ncc2-c2ccn(C(F)F)n2)CC1 [Example 220, N^2-(2-(1-(Cyclopropylsulfonyl)-1H-pyrazol-4-yl)pyrimidin-4-yl)-5-(1-(difluoromethyl)-1H-pyrazol-3-yl)-N^4-((1s,4s)-4-fluoro-4-methylcyclohexyl)pyridine-2,4-diamine] |  | 16.6 nM |  | 11.4 nM |  | 539 nM |  | 463 nM |  | 720 nM |  |  |  |  |  |  |  |  |  |  |
| Cn1ccc(-c2cnc(Nc3ccnc(-c4cnn(S(=O)(=O)C5CC5)c4)n3)cc2N[C@H]2CCC[C@H](CO)C2)n1 [Example 233, ((1S,3S)-3-((2-((2-(1-(Cyclopropylsulfonyl)-1H-pyrazol-4-yl)pyrimidin-4-yl)amino)-5-(1-methyl-1H-pyrazol-3-yl)pyridin-4-yl)amino)cyclohexyl)methanol] | 0.5 nM | 0.4 nM | 0.4 nM | 0.2 nM | 1.3 nM | 0.5 nM | 4.2 nM | 0.9 nM | 3140 nM | 3.6 nM |  |  |  |  |  |  |  |  |  |  |
| O=S(=O)(C1CC1)n1cc(-c2nccc(Nc3cc(NC[C@H]4CC[C@H](O)CC4)c(-c4ccn(C(F)F)n4)cn3)n2)cn1 [Example 31, (1r,4r)-4-(((2-((2-(1-(Cyclopropylsulfonyl)-1H-pyrazol-4-yl)pyrimidin-4-yl)amino)-5-(1-(difluoromethyl)-1H-pyrazol-3-yl)pyridin-4-yl)amino)methyl)cyclohexan-1-ol] | 1.3 nM | 0.4 nM |  | 0.2 nM | 1.3 nM | 0.5 nM | 18.7 nM | 1.3 nM | > 10000 nM | 10.5 nM |  |  |  |  |  |  |  |  |  |  |
| OCC[C@H]1CC[C@@H](Nc2cc(Nc3ccnc(-c4cnn(CC(F)F)c4)n3)ncc2-c2ccn(CC(F)(F)F)n2)CC1 [Example 338, 2-((1s,4s)-4-((2-((2-(1-(2,2-Difluoroethyl)-1H-pyrazol-4-yl)pyrimidin-4-yl)amino)-5-(1-(2,2,2-trifluoroethyl)-1H-pyrazol-3-yl)pyridin-4-yl)amino)cyclohexyl)ethan-1-ol] |  |  |  |  |  |  |  |  |  |  | 0.7 nM | 0.4 nM | 13.2 nM | 3.9 nM | 45.1 nM |  |  |  |  |  |
| Cn1nc(-c2cnc(Nc3ccnc(-c4cnn(S(=O)(=O)C5CC5)c4)n3)cc2N[C@H]2CC[C@@H](C(C)(C)O)CC2)cc1C(F)(F)F [Example 254, 2-((1s,4s)-4-((2-((2-(1-(Cyclopropylsulfonyl)-1H-pyrazol-4-yl)pyrimidin-4-yl)amino)-5-(1-methyl-5-(trifluoromethyl)-1H-pyrazol-3-yl)pyridin-4-yl)amino)cyclohexyl)propan-2-ol] | 3.9 nM | 3.7 nM | 6.5 nM | 1.7 nM | 6.5 nM | 5.5 nM | 33.5 nM | 18.5 nM | > 10000 nM | 12.9 nM |  |  |  |  |  |  |  |  |  |  |
| CN[C@H]1CC[C@@H](Nc2cc(Nc3ccnc(-c4cnn(S(=O)(=O)C5CC5)c4)n3)ncc2-c2ccn(C(C)C)n2)CC1 [Example 86, N^2-(2-(1-(Cyclopropylsulfonyl)-1H-pyrazol-4-yl)pyrimidin-4-yl)-5-(1-isopropyl-1H-pyrazol-3-yl)-N^4-((1s,4s)-4-(methylamino)cyclohexyl)pyridine-2,4-diamine] |  |  |  |  |  |  |  |  |  |  |  |  |  |  |  | 0.2 nM | 0.3 nM | 3.2 nM | 14.8 nM | 8510 nM |
| Cn1nc(-c2cnc(Nc3ccnc(-c4cnn(S(=O)(=O)C5CC5)c4)n3)cc2N[C@H]2CC[C@@H](CO)CC2)cc1C(F)(F)F [Example 253, ((1s,4s)-4-((2-((2-(1-(Cyclopropylsulfonyl)-1H-pyrazol-4-yl)pyrimidin-4-yl)amino)-5-(1-methyl-5-(trifluoromethyl)-1H-pyrazol-3-yl)pyridin-4-yl)amino)cyclohexyl)methanol] | 1.1 nM |  | 2.1 nM | 0.9 nM | 3.2 nM | 2.3 nM | 10.6 nM | 7 nM | 618 nM | 3.4 nM |  |  |  |  |  |  |  |  |  |  |
